How the values were obtained:
Cavia porcellus [1] = assay: Compound was tested for its ability to block antigen induced airway obstruction in guinea pig at dose 1 mg/kg at 2 hr; assay type: functional
Homo sapiens = species on record: Homo sapiens; assay: Compound was tested for its ability to inhibit calcium influx in human U937 cells; assay type: functional, cell-based; conditions: U-937
[2] = target: T1, Cysteinyl leukotriene receptor 1 (Cavia porcellus, UniProt Q2NNR5); assay: Antagonism of Cysteinyl leukotriene receptor 1 from guinea pig lung membranes; assay type: functional, tissue-based
T1 sequence (Q2NNR5 whole entry): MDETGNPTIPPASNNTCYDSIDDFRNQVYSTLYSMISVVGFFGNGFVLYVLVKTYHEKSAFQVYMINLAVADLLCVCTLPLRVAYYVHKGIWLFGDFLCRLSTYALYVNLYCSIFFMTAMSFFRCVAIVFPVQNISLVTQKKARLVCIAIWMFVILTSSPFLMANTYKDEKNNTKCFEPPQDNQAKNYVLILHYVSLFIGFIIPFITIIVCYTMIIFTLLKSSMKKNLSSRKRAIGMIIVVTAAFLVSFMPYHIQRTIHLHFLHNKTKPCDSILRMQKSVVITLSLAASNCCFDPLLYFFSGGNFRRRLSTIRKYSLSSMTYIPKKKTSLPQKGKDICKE

[3] = Half-life was evaluated in plasma of rat; assay type: ADME, organism-based
[4] = Volume of distribution after intravenous administration was evaluated in rat; assay type: ADME, organism-based; conditions: in vivo, read-out: Vdss
Rattus norvegicus = assay: Hepatic clearance after intravenous administration was evaluated in rat; assay type: ADME, organism-based, Liver; conditions: in vivo
Cavia porcellus [5] = assay: Compound was tested for its ability to block antigen induced airway obstruction in guinea pig at dose 1 mg/kg at 1 hr; assay type: functional

Row | Compound | IC50 (Homo sapiens) | Ki [2] | half-life [3] | Vd [4] | Clp (Rattus norvegicus) | inhibition in vivo at 1 mg/kg (Cavia porcellus [1]) | inhibition in vivo at 1 mg/kg (Cavia porcellus [5])
1 | COc1cc(C(=O)NS(=O)(=O)c2ccccc2C)ccc1Cc1cn(C)c2ccc(NC(=O)OC3CCCC3)cc12 [ZAFIRLUKAST] | 1 nM |  |  |  |  | 51.6% | 
2 | O=C(Nc1cccc2c(=O)cc(-c3nnn[nH]3)oc12)c1ccc(OCCCCc2ccccc2)cc1 | 1 nM |  |  |  |  |  | 50.1%
3 | COc1ccc(NS(=O)(=O)C(F)(F)F)cc1C[C@H]1[C@@H](O)c2cc(/C=C/c3ccc4ccc(Cl)cc4n3)ccc2OC1(C)C | 0.2 nM | 5 nM |  |  |  | 40.8% | 
4 | COc1ccc(NS(=O)(=O)C(F)(F)F)cc1C[C@H]1[C@@H](O)c2cc(OCc3ccc4ccc(Cl)cc4n3)ccc2OC1(C)C | 0.5 nM | 4 nM | 3.6 h | 1.6 L/kg | 6.7 mL/min/kg |  | 57.9%

The next lines start with results.

Row | IC50 (Homo sapiens) | Ki [2] | half-life [3] | Vd [4] | Clp (Rattus norvegicus) | Compound | inhibition in vivo at 1 mg/kg (Cavia porcellus [1]) | inhibition in vivo at 1 mg/kg (Cavia porcellus [5])
5 | 310 nM | 14 nM | 1.3 h | 0.4 L/kg | 3.3 mL/min/kg | O=C(O)c1cccc(C[C@@H]2COc3ccc(OCc4nc5cc(F)ccc5s4)cc3[C@@H]2O)c1 | 56% | 
6 | 17 nM | 4 nM |  |  |  | CC1(C)Oc2ccc(OCc3nc4cc(F)c(F)cc4s3)cc2[C@H](O)[C@@H]1Cc1cc(NS(=O)(=O)C(F)(F)F)ccc1Cl |  | 
7 | 0.3 nM | 2 nM | 3.9 h | 3.8 L/kg | 16 mL/min/kg | COc1ccc(NS(=O)(=O)C(F)(F)F)cc1C[C@H]1[C@@H](O)c2cc(OCc3nc4cc(F)c(F)cc4s3)ccc2OC1(C)C | 37.8% | 
8 | 2 nM | 7 nM |  |  |  | CC1(C)Oc2ccc(OCc3nc4cc(F)c(F)cc4s3)cc2[C@H](O)[C@@H]1Cc1cccc(NS(=O)(=O)C(F)(F)F)c1 | 45.8% | 
9 | 8 nM |  |  |  |  | C[C@H]1Oc2ccc(OCc3nc4cc(F)ccc4s3)cc2[C@H](O)[C@@H]1Cc1cccc(NS(=O)(=O)C(F)(F)F)c1 |  | 66.5%

Reference: ChEMBL document CHEMBL1130713, “Development of 2,2-dimethylchromanol cysteinyl LT1 receptor antagonists” (Bioorg Med Chem Lett, 1998)
